From ChEMBL document CHEMBL1136631, “Bis-sulfonamides as endothelin receptor antagonists” (Bioorg Med Chem Lett, 2003) come the findings set out here.

Test [1] concerns the target T1, Endothelin receptor type B (Rattus norvegicus, UniProt P21451).
T1 sequence (P21451 whole entry): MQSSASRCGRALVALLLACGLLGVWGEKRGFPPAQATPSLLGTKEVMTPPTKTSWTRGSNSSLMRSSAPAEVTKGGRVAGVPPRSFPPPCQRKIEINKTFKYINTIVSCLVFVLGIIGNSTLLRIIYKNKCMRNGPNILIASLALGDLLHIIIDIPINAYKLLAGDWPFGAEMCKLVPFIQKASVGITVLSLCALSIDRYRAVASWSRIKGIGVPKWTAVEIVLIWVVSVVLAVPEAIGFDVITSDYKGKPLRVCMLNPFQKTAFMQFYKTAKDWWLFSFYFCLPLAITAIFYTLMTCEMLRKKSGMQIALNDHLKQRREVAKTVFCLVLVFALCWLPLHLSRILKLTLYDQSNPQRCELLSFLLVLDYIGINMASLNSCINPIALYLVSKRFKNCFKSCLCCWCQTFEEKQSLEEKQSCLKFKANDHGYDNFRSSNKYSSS
The test is described as follows: In vitro inhibitory potency for preventing sarafotoxin S6c induced constriction of rat tracheal rings (ETB receptor). Format: functional, tissue-based, Trachea. To be noted: read-out: pA2 (converted).

For test [2], the target named is T2, Endothelin receptor type B (Homo sapiens, UniProt P24530).
T2 sequence (P24530 whole entry): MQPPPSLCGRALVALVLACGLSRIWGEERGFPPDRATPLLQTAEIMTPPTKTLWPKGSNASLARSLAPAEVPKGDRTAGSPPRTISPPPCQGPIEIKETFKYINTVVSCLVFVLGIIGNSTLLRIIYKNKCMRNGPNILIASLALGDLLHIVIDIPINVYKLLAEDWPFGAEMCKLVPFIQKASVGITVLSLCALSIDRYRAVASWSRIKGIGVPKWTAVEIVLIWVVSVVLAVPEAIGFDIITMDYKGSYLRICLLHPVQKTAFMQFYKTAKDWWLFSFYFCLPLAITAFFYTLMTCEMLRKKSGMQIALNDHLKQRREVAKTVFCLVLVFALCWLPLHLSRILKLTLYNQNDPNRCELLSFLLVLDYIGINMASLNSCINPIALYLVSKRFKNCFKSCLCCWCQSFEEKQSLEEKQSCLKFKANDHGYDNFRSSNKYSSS
The test is described as follows: Inhibitory concentration required against [125I]ET1 binding to membranes of CHO cells expressing human ETB receptor. The test is classed as cell membranes.

Test [3] has as its target T3, Endothelin-1 receptor (Homo sapiens, UniProt P25101).
T3 sequence (P25101 whole entry): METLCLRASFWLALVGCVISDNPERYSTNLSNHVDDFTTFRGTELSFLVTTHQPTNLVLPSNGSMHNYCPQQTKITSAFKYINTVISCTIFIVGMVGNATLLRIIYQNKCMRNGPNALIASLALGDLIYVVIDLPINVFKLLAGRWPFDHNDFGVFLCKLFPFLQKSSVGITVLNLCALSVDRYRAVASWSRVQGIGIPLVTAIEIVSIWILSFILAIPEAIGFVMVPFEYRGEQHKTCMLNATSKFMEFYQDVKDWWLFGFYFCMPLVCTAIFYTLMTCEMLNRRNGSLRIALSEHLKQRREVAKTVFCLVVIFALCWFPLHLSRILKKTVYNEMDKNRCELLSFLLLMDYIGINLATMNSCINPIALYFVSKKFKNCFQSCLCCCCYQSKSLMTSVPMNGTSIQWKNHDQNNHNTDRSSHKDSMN
Put plainly: Inhibitory concentration required against [125I]ET1 binding to membranes of CHO cells expressing human ETA receptor. Format: cell membranes.

The target of test [4] is T4, Endothelin-1 receptor (Rattus norvegicus, UniProt P26684).
T4 sequence (P26684 whole entry): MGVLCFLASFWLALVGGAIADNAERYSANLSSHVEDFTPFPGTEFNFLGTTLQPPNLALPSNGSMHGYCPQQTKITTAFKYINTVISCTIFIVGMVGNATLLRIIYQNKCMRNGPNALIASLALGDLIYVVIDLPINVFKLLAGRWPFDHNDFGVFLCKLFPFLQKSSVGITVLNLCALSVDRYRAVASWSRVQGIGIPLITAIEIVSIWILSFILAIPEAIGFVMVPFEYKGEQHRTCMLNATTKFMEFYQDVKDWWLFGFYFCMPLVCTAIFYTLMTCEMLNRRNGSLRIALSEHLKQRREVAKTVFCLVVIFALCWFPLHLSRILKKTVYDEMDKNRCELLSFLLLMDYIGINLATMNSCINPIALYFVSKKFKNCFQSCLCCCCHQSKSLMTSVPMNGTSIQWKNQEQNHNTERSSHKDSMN
The test is described as follows: In vitro inhibitory potency for preventing ET-1 induced constriction of rat aortic rings (ETA receptor). The test is classed as functional. To be noted: read-out: pA2 (converted).

In general, IC50 refers to the concentration that inhibits the measured activity by half. `COc1ccccc1Oc1c(NS(=O)(=O)c2ccc(C(C)C)cn2)nc(-c2cc(OC)c(OC)c(OC)c2)nc1OCCNS(=O)(=O)c1cccs1`: in test [1], the Kb was 38.9 nM. The IC50 in test [2] turned out to be 7 nM.

As for `COc1ccccc1Oc1c(NS(=O)(=O)c2ccc(C(C)(C)C)cc2)nc(-c2ncccn2)nc1OCCCNS(=O)(=O)c1cccs1`, the IC50 at Endothelin-1 receptor [3] amounted to 86 nM; in test [2] it was 4 nM.

`CCCS(=O)(=O)NCCOc1nc(N2CCOCC2)nc(NS(=O)(=O)c2ccc(C)cn2)c1Oc1ccccc1OC`: the IC50 on Endothelin-1 receptor [3] worked out at 51 nM; in test [2], 931 nM.

In the case of `CCS(=O)(=O)NCCOc1nc(N2CCOCC2)nc(NS(=O)(=O)c2ccc(C(C)C)cn2)c1Oc1ccccc1OC`, the figures for the IC50 (on Endothelin-1 receptor [3]; in test [2]) were 19 nM and 122 nM, respectively.

On to `COc1ccccc1Oc1c(NS(=O)(=O)c2ccc(C)cn2)nc(-c2cc(OC)c(OC)c(OC)c2)nc1OCCNS(=O)(=O)c1cccs1`, for which the values for the IC50 (on Endothelin-1 receptor [3]; in test [2]) were 2770 nM and 351 nM, respectively.

`CCCS(=O)(=O)NCCOc1nc(N2CCOCC2)nc(NS(=O)(=O)c2ccc(C(C)C)cn2)c1Oc1ccccc1OC`: the Kb in test [1] was 240 nM; at Endothelin-1 receptor [4], 832 nM.

Turning to `CCCS(=O)(=O)NCCOc1nc(C2CC2)nc(NS(=O)(=O)c2ccc(C(C)C)cn2)c1Oc1ccccc1OC`, the Kb in test [1] was 363 nM; at Endothelin-1 receptor [4], 288 nM. The values for the IC50 (on Endothelin-1 receptor [3]; in test [2]) were 80 nM and 84 nM, respectively.

`CCS(=O)(=O)NCCOc1nc(C2CC2)nc(NS(=O)(=O)c2ccc(C)cn2)c1Oc1ccccc1OC`: the figures for the IC50 (at Endothelin-1 receptor [3]; in test [2]) were 582 nM and 5660 nM, respectively.

With `COc1ccccc1Oc1c(NS(=O)(=O)c2ccc(C(C)C)cn2)nc(N2CCOCC2)nc1OCCCNS(=O)(=O)c1ccc(C)cc1`, the Kb is 107 nM in test [1] and 4790 nM at Endothelin-1 receptor [4]. In addition, the IC50 amounted to 116 nM at Endothelin-1 receptor [3] and 24 nM in test [2].

`CCS(=O)(=O)NCCOc1nc(C2CC2)nc(NS(=O)(=O)c2ccc(C(C)C)cn2)c1Oc1ccccc1OC`: the Kb is 269 nM in test [1] and 347 nM on Endothelin-1 receptor [4]. Besides, the IC50 at Endothelin-1 receptor [3] is 50 nM; in test [2], 397 nM.

In the case of `COc1ccccc1Oc1c(NS(=O)(=O)c2ccc(C)cn2)nc(Cc2ccc3c(c2)OCO3)nc1OCCNS(=O)(=O)c1cccs1`, the IC50 in test [2] is 2110 nM.

Regarding `CCS(=O)(=O)NCCOc1nc(-c2ncccn2)nc(NS(=O)(=O)c2ccc(C(C)(C)C)cc2)c1Oc1ccccc1OC`, the figures for the IC50 (on Endothelin-1 receptor [3]; in test [2]) were 487 nM and 873 nM, respectively.

On to `COc1ccccc1Oc1c(NS(=O)(=O)c2ccc(C)cn2)nc(C2CC2)nc1OCCNS(=O)(=O)c1cccs1`, for which the IC50 came out at 1850 nM on Endothelin-1 receptor [3] and 8240 nM in test [2].

Regarding `CCCS(=O)(=O)NCCCOc1nc(C2CC2)nc(NS(=O)(=O)c2ccc(C(C)C)cn2)c1Oc1ccccc1OC`, the figures for the Kb (in test [1]; on Endothelin-1 receptor [4]) were 69.2 nM and 245 nM, respectively.

As for `CCCS(=O)(=O)NCCOc1nc(-c2cc(OC)c(OC)c(OC)c2)nc(NS(=O)(=O)c2ccc(C(C)C)cn2)c1Oc1ccccc1OC`, the results for the Kb (in test [1]; on Endothelin-1 receptor [4]) were 33.1 nM and 3160 nM, respectively. The molecule also came in with an IC50 in test [2] of 24 nM.

On to `COc1ccccc1Oc1c(NS(=O)(=O)c2ccc(C)cn2)nc(-c2ccncc2)nc1OCCNS(=O)(=O)c1cccs1`, for which the IC50 on Endothelin-1 receptor [3] was determined as 2840 nM; in test [2], 3680 nM.

As for `COc1ccccc1Oc1c(NS(=O)(=O)c2ccc(C(C)C)cn2)nc(C2CC2)nc1OCCCNS(=O)(=O)c1ccc(C)cc1`, the Kb was 49 nM in test [1] and 309 nM on Endothelin-1 receptor [4]. In addition, in test [2], the IC50 amounted to 19 nM.

With `CCS(=O)(=O)NCCCOc1nc(-c2ncccn2)nc(NS(=O)(=O)c2ccc(C(C)(C)C)cc2)c1Oc1ccccc1OC`, the IC50 on Endothelin-1 receptor [3] came out at 1590 nM; in test [2], 101 nM.

For the molecule `COc1ccccc1Oc1c(NS(=O)(=O)c2ccc(C(C)C)cn2)nc(C2CC2)nc1OCCCNS(=O)(=O)c1cccs1`, the results for the Kb (in test [1]; at Endothelin-1 receptor [4]) were 9.12 nM and 120 nM, respectively. In addition, in test [2], the IC50 was 4 nM.

In test [2], `COc1ccccc1Oc1c(NS(=O)(=O)c2ccc(C)cn2)nc(-c2ccncc2)nc1OCCNS(=O)(=O)c1ccc(C)cc1` returned an IC50 of 1540 nM.

Consider `CCS(=O)(=O)NCCCOc1nc(C2CC2)nc(NS(=O)(=O)c2ccc(C(C)C)cn2)c1Oc1ccccc1OC`, for which the Kb is 269 nM in test [1] and 105 nM on Endothelin-1 receptor [4].

As for `COc1ccccc1Oc1c(NS(=O)(=O)c2ccc(C(C)C)cn2)nc(-c2cc(OC)c(OC)c(OC)c2)nc1OCCNS(=O)(=O)c1ccc(C)cc1`, the IC50 in test [2] was 4 nM. In addition, the Kb on Endothelin-1 receptor [4] is above 10000 nM.

With `COc1ccccc1Oc1c(NS(=O)(=O)c2ccc(C(C)(C)C)cc2)nc(C2CC2)nc1OCCCNS(=O)(=O)c1cccs1`, the IC50 on Endothelin-1 receptor [3] came out at 14 nM; in test [2], 2 nM.

As to `COc1ccccc1Oc1c(NS(=O)(=O)c2ccc(C(C)C)cn2)nc(N2CCOCC2)nc1OCCNS(=O)(=O)c1ccc(C)cc1`, the figures for the IC50 (at Endothelin-1 receptor [3]; in test [2]) were 1380 nM and 9 nM, respectively.

As to `COc1ccccc1Oc1c(NS(=O)(=O)c2ccc(C(C)(C)C)cc2)nc(-c2ncccn2)nc1OCCNS(=O)(=O)c1cccs1`, the IC50 in test [2] is 16 nM.

Turning to `CCCS(=O)(=O)NCCOc1nc(C2CC2)nc(NS(=O)(=O)c2ccc(C)cn2)c1Oc1ccccc1OC`, the IC50 turned out to be 1320 nM on Endothelin-1 receptor [3] and 4670 nM in test [2].
